Laboratory results: publication PMC3748812 (Angewandte Chemie (International ed. in English), 2013)

Columns and labels:
Assay type in all cases: biochemical
[1] = target: T1, ethylbenzene dehydrogenase (EbDH) (Aromatoleum aromaticum, UniProt Q5P5I0); experiment: inhibition of ethylbenzene-dependent activity; settings: substrate ethylbenzene
[2] = target: T1, ethylbenzene dehydrogenase (EbDH); experiment: ethylbenzene hydroxylation activity assay; settings: native substrate; Km in text is cited from an earlier paper
[3] = target: T1, ethylbenzene dehydrogenase (EbDH); experiment: inhibition of ethylbenzene-dependent activity, dose response; settings: substrate ethylbenzene; preincubated with inhibitor

Row | IC50 [3] [µM] | SMILES | further results
1 |  | CCn1ccnc1 [N-ethylimidazole] | IC50 [1]: 2.2 mM
2 |  | CCc1ccccc1 [ethylbenzene] | ethylbenzene hydroxylation activity assay [2]: Nonlinear plots of the remaining ethylbenzene-dependent activity of EbDH
3 | 2.8 | CCN1BC=CC=C1 [N-ethyl-1,2-azaborine] | 
4 | 100 | CCB1C=CC=CN1 [B-ethyl-1,2-azaborine] | 
